Laboratory results taken from a melting point compilation (Tetko et al.; mined from patent text by program, amines drawn as free bases though some values may be those of a salt).

| SMILES | melting point [°C] |
| --- | --- |
| CCCCN1CC=C(c2cccc3c2CC(=O)N3)CC1 | 110 to 111 |
| CCOC(=O)c1cn(N2CCOCC2)c2ccc(CN3CCOCC3)cc2c1=O | 209 to 211 |
| COc1ccccc1NC1CN([C@H]2CC[C@@H](c3c[nH]c4ccccc43)CC2)C1 | 67 to 70 |
| CC(=O)c1ccc(NC(=O)C(F)(F)F)nc1 | 147 to 149 |
| O=C(c1cc2cc3[nH]c(=O)oc3cc2[nH]1)N1CCC(Cc2ccccc2)CC1 | 270 to 271 |
| O=C(c1ccccc1)c1cccc2c1CCC2C(=O)O (stereo unspecified) | 100 to 102 |
| CCn1nc(C)c2c1C(=O)Nc1ccccc1N2C(=O)CN1CCN(C)CC1 | 145 to 146 |
| COP(=O)(Cc1nc2cc3c(cc2nc1C(=O)OC(C)(C)C)OC(C)(C)O3)OC | 86.3 to 87.9 |
| CN(C)CCN1C(=O)C(NC(=O)CCc2ccc(Cl)cc2Cl)N=C(c2ccccc2)c2ccccc21 (stereo unspecified) | 199 to 201 |
| CNC(=O)c1cnn2c(C(=O)N3CCN(C(=O)OC(C)(C)C)CC3)c(Cc3cccc(F)c3C)c(-c3ccccc3)c2c1 | 153 to 154 |
| O=C1CCC(N2Cc3c(OCc4ccc(CN5CCC(c6cccc(F)c6)CC5)cc4)cccc3C2=O)C(=O)N1 (stereo unspecified) | 200 to 202 |
| CNC(=O)c1cc2n(n1)-c1ccc(Cl)cc1C(c1ccccc1)=NC2 | 170 to 172 |
| CCCC(=O)c1c(O)oc(=O)c(C(=O)CCC)c1O | 80 to 82 |
| O=C(O)CCCN1C(=O)C(c2ccccc2)SC1=S (stereo unspecified) | 138 to 139 |
| CN(C(=O)CN(C(=O)CNC(=O)Nc1cccc(Cc2nnn[nH]2)c1)c1ccccc1)c1ccccc1 | 206 |
| NC(=O)C1=C(c2ccccc2)C(c2ccccc2)OC1=O (stereo unspecified) | 125 to 127 |
| C[C@]1(CN2CCN(c3ccc(C(=O)O)cc3)CC2)Cn2cc([N+](=O)[O-])nc2O1 | 248 to 252 |
| CN1Cc2c(C#N)ncn2-c2cccc(F)c2C1=O | > 250 |
| CCOc1cc2c(C)c(CCN3CCN(c4ccccc4OC)CC3)c(=O)oc2cc1OC | 143 to 145 |
| Cn1nc(-c2cc([N+](=O)[O-])cc([N+](=O)[O-])c2)cc1O | 230 to 231 |
| Cc1ccccc1P(=NC(=O)OC1CCOC1)(c1ccccc1)c1ccccc1 (stereo unspecified) | 118 to 119 |
| CCOC(=O)c1ccc(OCC2CCN(C(=O)OC(C)(C)C)CC2)c(OC)c1 | 81 to 83 |
| COc1cc2c(cc1OC)N(C)C(=O)CNC2=O | 260 to 263 |

| SMILES | melting point [°C] |
| --- | --- |
| C#CCOc1cc(CO)cc(OCC#C)c1 | 79 to 80 |
| Cc1oc(-c2ccccc2)nc1CCOc1ccc(CC(Nc2ccccc2C(=O)c2ccccc2)C(=O)O)c2sccc12 (stereo unspecified) | 124 to 127 |
| COC(=O)CCCC#CCC1C(=O)CCCC1=O | 108 to 110 |
| O=C(c1ccc(F)cc1)C1CCN(CCN(C(=O)c2ccc([N+](=O)[O-])cc2)c2ccccc2)CC1 | 178 to 180 |
| CC(=O)Oc1cc(C(C)=O)cc(C#N)c1OC(C)=O | 76 to 79 |
| Cc1nc(Cn2c(=O)sc3cc(F)c(N)cc32)no1 | 156 to 157 |
| CC(=C(c1ccccc1)c1ccccc1)P(c1ccccc1)c1ccccc1 | 128 to 130 |
| CC1(C)Cc2cccc(S(N)(=O)=O)c2O1 | 160 to 162 |
| COc1cccc(CCC(=O)CCCCCC(=O)O)c1 | 41 to 43 |
| CCOC(=O)CC(=O)CNC(=O)CCc1cc(-c2ccc(C(F)(F)F)cc2)oc1C | 131 to 133 |
| CC1Oc2c(F)cc(CN3CCN(c4ccc(C(=O)NC5CC5)cc4)CC3)cc2NC1=O (stereo unspecified) | 108 to 110 |
| CCC(=NNC(=O)OC(C)(C)C)c1ccncc1 | 170 |
| CCOC(=O)CC(=O)c1cc(F)c(F)c(OC)c1F | 42 to 44 |
| N#Cc1n[nH]c2nc(N3CCN(CCO)CC3)ccc12 | 232 to 233 |
| CCCCCCn1c(=O)c(=O)[nH]c2c3ccccc3ccc21 | 196 |
| COC(=O)N1C[C@@H](C#N)[C@H](c2ccc(OC)c(OC3CCCC3)c2)C1 (relative stereo) | 101 to 104 |
| O=S(=O)(Nc1ccccc1O)c1ccccc1 | 140 |
| O=C1OCc2cccc(CBr)c21 | 128 to 131 |
| CCn1cc(C(=O)O)c(=O)c2cc(C)sc21 | 229 to 230 |
| COC=C(C#C[Si](C)(C)C)C(=O)OC | 70 to 72 |
| CC(=O)n1nc(C(N)=O)c2ccccc21 | 165 to 171 |
| CCOc1cc2ncc(C#N)c(Nc3ccc4c(c3)C(=O)NC4=O)c2cc1OCC | 248 to 251 |
| O=C(O)Cc1ccc(NC(=O)C(COc2ccccc2)NS(=O)(=O)c2ccc(Br)cc2)cc1 (racemic) | 201 to 204 |

Other lines, results leading:

| melting point [°C] | SMILES |
| --- | --- |
| 232 to 234 | Cc1c(CC(=O)O)c2cc(OCc3ccc4ccccc4n3)ccc2n1Cc1ccc(C(=O)O)cc1 |
| 159 to 162 | CC(=O)Nc1cccc(CNc2nc(Nc3cccc(NS(C)(=O)=O)c3)nc3[nH]cnc23)c1 |
| 167 to 169 | COc1ccc(S(=O)(=O)N2c3ccccc3-c3ccccc3C2C)cc1 (stereo unspecified) |
| 135 to 136 | COc1cc(CCCCC2OC(=O)NC2=O)ccc1OCc1nc(-c2ccccc2)oc1C (stereo unspecified) |
| 93 to 96 | O=C(Oc1cccc2ccccc12)c1ccc(CCl)cc1 |
| 204 | O=C(Cl)c1ccc(OC(=O)c2cccc(C(=O)Oc3ccc(C(=O)Cl)cc3)c2)cc1 |
| 246 to 247 | Oc1ncnc2c1c(Nc1ccccc1)nn2Cc1ccccc1 |
| 275 to 280 | CCOC(=O)c1cnc2ccc(CC3CCOCC3)cc2c1O |
| 212 to 214 | O=C(CN1C(=O)C(Cl)=C(Cl)C1=O)Nc1ccc(Cl)cc1 |
| 188 to 190 | CC(C)(CCOc1ccc(Cl)cc1)C(=O)Cn1cncn1 |
| 149 to 150 | COc1ccc(-c2nc(O)c(C)s2)cc1 |
| 198 to 200 | CNc1ccc2sc3ccc(Br)cc3c(=O)c2c1 |
| 194 to 195 | c1ccc2c(c1)nnn2C(n1nnc2ccccc21)n1nnc2ccccc21 |
| 231 | CCNC(=O)Nc1nc2cc(-c3cccnc3)cc(-c3ccc(C)cn3)c2s1 |
| 120 to 121 | CC(C)(C(=O)C(Oc1ccc(Cl)cc1Cl)n1cncn1)C(Cl)Cl (stereo unspecified) |
| 215 to 218 | COc1cc2ncnc(N3CCc4ccc(N)cc43)c2cc1OC |
| 131 to 132 | NCCC(O)(c1ccc(Cl)cc1)c1ccc(-c2ccc(Cl)cc2)cc1 (stereo unspecified) |
| 134 to 135 | COC(=O)c1ccc(-c2nn(Cc3ccccc3)c3ccc([N+](=O)[O-])cc23)o1 |
| 215 to 218 | CC(=O)OCC1Cn2cc(C(=O)NCc3ccc(Cl)cc3)c(=O)c3cc(CN4CCOCC4)cc(c32)O1 (stereo unspecified) |
| 33 to 34 | CCC(CC)n1nc(C)c2c(Cl)nc(C)nc21 |
| 205 to 206 | O=C(O)C1=Cc2cc(-c3ccc(Cl)s3)ccc2OC1C(F)(F)F (stereo unspecified) |
| 51 | COc1ccc(C(=CN(C)C)C(C)=O)cc1 |
| 197 to 198 | CS(=O)(=O)c1ccc(-c2cnn(CC(F)(F)F)c(=O)c2-c2ccc(Cl)c(Cl)c2)cc1 |
| 186 | CN(C)C=Nc1c(I)c(=O)n(Cc2ccccc2)c(=O)n1C |
| 277 to 280 | Cc1cc(C#N)cc(C)c1Nc1nc(Nc2ccc(C#N)cc2)ncc1Br |
| 214 | CCOC(=O)C1=C(c2ccccc2)Nc2n[nH]cc2C1c1ccccc1Cl (stereo unspecified) |
| 178 to 180 | CNC(=O)CC1CN=C(c2cc3cc(Oc4ccc(S(C)(=O)=O)nc4)ccc3[nH]2)S1 (stereo unspecified) |
| 270 | O=c1c2ccc(-c3nnn[nH]3)cc2oc2ccc(OCCO)cc12 |

| melting point [°C] | SMILES |
| --- | --- |
| 105 to 107 | C=CCOc1ccc2c(c1)CCNC2=O |
| 181 to 182 | CCOC(=O)c1ccc(NC(=O)NCCn2c(C)ccc2C)cc1 |
| 160 | O=C(O)CCc1cc2cc(Cl)ccc2n1S(=O)(=O)c1ccc2ccccc2c1 |
| 101 to 102 | FC(F)Oc1ccc(C=Cc2nc(CNc3ccc(CCCCn4ccnn4)cc3)co2)cc1 |
| 79 | COc1cccc2c1CCC1C(C)=C(O[Si](C)(C)C)CCC21C (stereo unspecified) |
| 85.5 to 87 | CC1=CC(O)C(OC(=O)C=Cc2ccccc2)C(C)(C)CC1=O (stereo unspecified) |
| 260 | COc1ccc2c(O)c(C(=O)N(O)c3ccccc3)cnc2c1 |
| 189 to 190 | CC(C)Cn1c(=O)[nH]c(=O)c2cc(Cc3cccc4ccccc34)sc21 |
| 110 to 111 | O=Cc1cccc(OCCn2ncc3ccccc3c2=O)c1 |
| 161 to 162 | COc1ccc2c(c1)C(=O)c1c-2c(N2CCN(C(=O)CCNCCN(C)C)CC2)nc2ccccc12 |
| 195 to 200 | Cc1cnc(C)n1CC(O)c1ccc(-c2ccc(N3C[C@H](Cn4ccnn4)OC3=O)cc2F)cn1 (stereo partly specified) |
| 143 | CCC(C(=O)O)c1cccc(C(=O)c2cc3ccsc3s2)c1 (stereo unspecified) |
| 316 to 317 | CNc1nc(N)nc2cc(-c3ccccc3S(=O)(=O)NC)ccc12 |
| 180 to 181 | CN1CCC(Cn2nc(-c3c(-c4ccccc4)nn4ccccc34)ccc2=O)CC1 |
| 305 to 306 | O=[N+]([O-])c1cc(-c2nnc(Nc3ccc(Cl)c(Cl)c3)s2)cc([N+](=O)[O-])c1 |
| 101 to 102 | Cc1ccc(S(=O)(=O)NC(C)C(=O)Cl)cc1 (stereo unspecified) |
| 200 | COc1ccc(Oc2ccc3ccc(N)nc3n2)cc1 |
| 45 to 45.6 | CCC(CC)N(OCc1ccccc1)C(=O)Nc1ccccc1 |
| 152 to 154 | O=C(O)CCc1cc(Cl)cc2nc(-c3ccccc3Cl)oc12 |
| 142 to 146 | COc1cc(N)c(Cl)cc1C(=O)NCC1CCN(CCCCCNC(=O)c2ccc(C)cc2)CC1 |
| 135 to 136 | CC(C)N(C=Nc1ncc(Oc2ccc(Cl)cc2)c(Cl)n1)C(C)C |
| 53 | CC(O)c1cccc(Cl)c1Cl (stereo unspecified) |
| 83 to 86 | CCCCc1ccc(C(=O)NC(C)(C(N)=O)C(C)C)nc1 (stereo unspecified) |
| 87.5 to 89 | CCOC(=O)c1cc(-c2ccc(Cl)cc2)ns1 |
| 127 to 130 | CC(=O)c1cnn2c(-c3cccc(C(F)(F)F)c3)ccnc12 |
| 147 | CCOC(=O)c1cnc2c(C)cc(-c3ccc(Cl)cc3)cn12 |
| 112 to 115 | OC(Cn1ccnc1)c1cccc2ccccc12 (stereo unspecified) |
